# Values of other authors as cited in patent US9962390B2, “Mosapride sustained-release formulation providing pharmacological and clinical effects with once-daily administration” (Korea United Pharm. Inc., priority 2013, dated 2018).
# Counter-ions that a name gives are not always drawn.
# What was measured:
# [1] = not given; remark: listed apart in the source
concentration in eyeballs relative to blood (eyeballs),"concentration relative to that in blood plasma (liver, small intestine, kidney, and adrenal glands)",absorbed in the digestive tract (orally administered),water solubility compared with Mosapride [1],Structure (SMILES)
about half the concentration in blood,at least 10 times,more than 93%,–,"CCOc1cc(N)c(Cl)cc1C(=O)NCC1CN(Cc2ccc(F)cc2)CCO1 (stereo not shown) [Mosapride, 4-amino-5-chloro-2-ethoxy-N-{[4-(4-fluorobenzyl)-2-morpholinyl]methyl}benzamide]"
–,–,–,higher water solubility,CCOc1cc(N)c(Cl)cc1C(=O)NCC1CN(Cc2ccc(F)cc2)CCO1 (stereo not shown) [Mosapride citrate]
